Assay results published in patent publication US20250230193A1, “CYCLIC COMPOUND HAVING SELECTIVE KRAS INHIBITORY EFFECT ON HRAS AND NRAS” (CHUGAI SEIYAKU KABUSHIKI KAISHA, priority 2022, published 2025).
Where a SMILES comes first, the peptide text is derived from it. Bridges are numbered along the chain shown (N, C = ends). [ ]: non-standard residue; d: D form. The star is where a group is joined. hPhe(3,5-F2-4-CF3) = N[C@@H](CCc1cc(F)c(C(F)(F)F)c(F)c1)C(=O)O; NPrPhe(4-CF3) = CCCN[C@@H](Cc1ccc(C(F)(F)F)cc1)C(=O)O; NMeAbu(4,4,4-F3) = CN[C@@H](CC(F)(F)F)C(=O)O; NMeGly(cPent) = CN[C@H](C(=O)O)C1CCCC1; Nva(3-Et) = CCC(CC)[C@H](N)C(=O)O; NMeD = CN[C@@H](CC(=O)O)C(=O)O; NMeL = CN[C@@H](CC(C)C)C(=O)O; Iva = CC[C@](C)(N)C(=O)O; Morpholide = C1CN(*)CCO1; Ac5c = NC1(C(=O)O)CCCC1; Aze = O=C(O)[C@@H]1CCN1; Sar = CNCC(=O)O

Columns and labels:
[1] = target: GDP-bound NRAS wild-type protein (Homo sapiens, UniProt P01111); test: Binding to NRAS by surface plasmon resonance (SPR), Single Cycle Kinetics; details: KD ratio NRAS/KRAS, SPR
Chain of GDP-bound NRAS wild-type protein (P01111 whole entry): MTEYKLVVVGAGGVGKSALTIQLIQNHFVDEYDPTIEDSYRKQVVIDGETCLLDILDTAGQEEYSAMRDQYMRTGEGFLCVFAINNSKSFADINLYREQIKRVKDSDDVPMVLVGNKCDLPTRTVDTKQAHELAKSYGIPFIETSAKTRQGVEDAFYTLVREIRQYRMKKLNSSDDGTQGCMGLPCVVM

[2] = target: GDP-bound HRAS wild-type protein (Homo sapiens, UniProt P01112); test: Binding to HRAS by surface plasmon resonance (SPR), Single Cycle Kinetics; details: KD ratio HRAS/KRAS, SPR
Chain of GDP-bound HRAS wild-type protein (P01112 whole entry): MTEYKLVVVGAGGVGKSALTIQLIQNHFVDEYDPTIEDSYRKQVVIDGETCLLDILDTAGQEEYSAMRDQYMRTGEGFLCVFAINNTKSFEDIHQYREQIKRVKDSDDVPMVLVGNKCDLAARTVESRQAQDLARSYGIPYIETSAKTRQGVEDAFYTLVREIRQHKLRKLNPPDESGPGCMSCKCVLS

| Structure (SMILES) | NRAS/KRAS (ratio of KD value with respect to GDP-bound NRAS wild-type protein to KD value with respect to KRAS) [1] | HRAS/KRAS (ratio of KD value with respect to GDP-bound HRAS wild-type protein to KD value with respect to KRAS) [2] |
| --- | --- | --- |
| CCCN1C(=O)[C@@H]2CCN2C(=O)CN(C)C(=O)[C@H]([C@@H](C)CC)NC(=O)[C@H](CC(C)C)N(C)C(=O)C[C@@H](C(=O)N2CCOCC2)N(C)C(=O)[C@H](CC(F)(F)F)N(C)C(=O)C2(CCCC2)NC(=O)[C@@H]2CCCN2C(=O)[C@H](CCc2cc(F)c(C(F)(F)F)c(F)c2)NC(=O)CN(C)C(=O)[C@@H]1Cc1ccc(C(F)(F)F)cc1 [PP0803] ([NMeL]I[Sar][Aze][NPrPhe(4-CF3)][Sar][hPhe(3,5-F2-4-CF3)]P[Ac5c][NMeAbu(4,4,4-F3)][NMeD]-Morpholide; lactam N-11) | C (A compound having a KD ratio of 0.1 or more and less than 3 is denoted as C) | B (a compound having 3 or more and less than 10 is denoted as B) |
| CCCN1C(=O)[C@@H]2CCN2C(=O)CN(C)C(=O)[C@H](C(CC)CC)NC(=O)[C@H](CC(C)C)N(C)C(=O)C[C@@H](C(=O)N2CCOCC2)N(C)C(=O)[C@H](C2CCCC2)N(C)C(=O)C2(CCCC2)NC(=O)[C@@H]2CCCN2C(=O)[C@H](CCc2cc(F)c(C(F)(F)F)c(F)c2)NC(=O)CN(C)C(=O)[C@@H]1Cc1ccc(C(F)(F)F)cc1 [PP0804] ([NMeL][Nva(3-Et)][Sar][Aze][NPrPhe(4-CF3)][Sar][hPhe(3,5-F2-4-CF3)]P[Ac5c][NMeGly(cPent)][NMeD]-Morpholide; lactam N-11) | C (A compound having a KD ratio of 0.1 or more and less than 3 is denoted as C) | B (a compound having 3 or more and less than 10 is denoted as B) |
| CCCN1C(=O)CN(C)C(=O)CN(C)C(=O)[C@H]([C@@H](C)CC)NC(=O)[C@H](CC(C)C)N(C)C(=O)C[C@@H](C(=O)N(C)C)N(C)C(=O)[C@H](C2CCCC2)N(C)C(=O)[C@](C)(CC)NC(=O)[C@@H]2CCCN2C(=O)[C@H](CCc2cc(F)c(C(F)(F)F)c(F)c2)NC(=O)CN(C)C(=O)[C@@H]1Cc1ccc(C(F)(F)F)cc1 [PP0805] ([NMeL]I[Sar][Sar][NPrPhe(4-CF3)][Sar][hPhe(3,5-F2-4-CF3)]P[Iva][NMeGly(cPent)][NMeD]-NMe2; lactam N-11) | B (a compound having 3 or more and less than 10 is denoted as B) | C (A compound having a KD ratio of 0.1 or more and less than 3 is denoted as C) |
| CCO[C@@H]1C[C@H]2C(=O)NC3(CCC3)C(=O)N(C)[C@@H](C3CCCC3)C(=O)N(C)[C@H](C(=O)N3CCOCC3)CC(=O)N(C)[C@@H](CC(C)C)C(=O)N[C@@H]([C@H](C)CC)C(=O)N(C)CC(=O)N(C)[C@H]3CCCCN(C3=O)[C@@H](Cc3ccc(C(F)(F)F)cc3)C(=O)N(C)CC(=O)N[C@@H](CCc3cc(F)c(C(F)(F)F)c(F)c3)C(=O)N2C1 [PP0806] | B (a compound having 3 or more and less than 10 is denoted as B) | B (a compound having 3 or more and less than 10 is denoted as B) |
| CCO[C@@H]1C[C@H]2C(=O)NC3(CCC3)C(=O)N(C)[C@@H](C3CCCC3)C(=O)N(C)[C@H](C(=O)N3CCOCC3)CC(=O)N(C)[C@@H](CC(C)C)C(=O)N[C@@H](C3CC(F)(F)C3)C(=O)N(C)CC(=O)N(C)[C@H]3CCCCN(C3=O)[C@@H](Cc3ccc(C(F)(F)F)cc3)C(=O)N(C)CC(=O)N[C@@H](CCc3cc(F)c(C(F)(F)F)c(F)c3)C(=O)N2C1 [PP0807] | B (a compound having 3 or more and less than 10 is denoted as B) | B (a compound having 3 or more and less than 10 is denoted as B) |
| CC[C@H](C)[C@@H]1NC(=O)[C@H](CC(C)C)N(C)C(=O)C[C@@H](C(=O)N2CCOCC2)N(C)C(=O)[C@H](C2CCCC2)N(C)C(=O)C2(CCC2)NC(=O)[C@]2(C)CCCN2C(=O)[C@H](CCc2cc(F)c(C(F)(F)F)c(F)c2)NC(=O)CN(C)C(=O)[C@H](Cc2ccc(C(F)(F)F)cc2)N2CCCC[C@@H](C2=O)N(C)C(=O)CN(C)C1=O [PP0808] | B (a compound having 3 or more and less than 10 is denoted as B) | B (a compound having 3 or more and less than 10 is denoted as B) |
| CC[C@H](C)[C@@H]1NC(=O)[C@H](CC(C)C)N(C)C(=O)C[C@@H](C(=O)N2CCOCC2)N(C)C(=O)[C@H](C2CCCC2)N(C)C(=O)C2(CCC2)NC(=O)[C@@H]2C[C@@H](C(F)(F)F)CN2C(=O)[C@H](CCc2cc(F)c(C(F)(F)F)c(F)c2)NC(=O)CN(C)C(=O)[C@H](Cc2ccc(C(F)(F)F)cc2)N2CCCC[C@@H](C2=O)N(C)C(=O)CN(C)C1=O [PP0809] | B (a compound having 3 or more and less than 10 is denoted as B) | B (a compound having 3 or more and less than 10 is denoted as B) |
